Earlier results on three molecules are cited in patent US20080008772A1, “Narcotic biphasic release compositions and methods for treatment of coughing, sneezing, rhinorrhea, and/or nasal obstruction” (Everett Laboratories, Inc., priority 2006, published 2008).

For data set [1] the following is noted: in vivo.

For `COc1ccccc1OCC(O)CO` (centres unmarked) [Guaifenesin, 3-(2-methoxyphenoxy)-1,2 propanediol], in data set [1], the plasma half life result is given as “one”.

Turning to `COc1ccc2c3c1O[C@H]1C(=O)CC[C@H]4[C@@H](C2)N(C)CC[C@]314.COc1ccc2c3c1O[C@H]1C(=O)CC[C@H]4[C@@H](C2)N(C)CC[C@]314.O.O.O.O.O.O=C(O)C(O)C(O)C(=O)O.O=C(O)C(O)C(O)C(=O)O` [Hydrocodone bitartrate, 4,5a-epoxy-3-methoxy-17-methylmorphinan-6-one tartrate (1:1)hydrate (2:5)], where the note is “at equi-effective doses, versus codeine”, the sedative action result was “greater than codeine”. With `COc1ccc2c3c1O[C@H]1C(=O)CC[C@H]4[C@@H](C2)N(C)CC[C@]314` [hydrocodone, 4,5α-epoxy-3-methoxy-17-methylmorphinan-6-one], under “at therapeutic antitussive doses”, the analgesic effects entry is on record as “does exert analgesic effects”. Moreover, the “effects on the cardiovascular system” value (therapeutic doses) is “insignificant”. In addition, for the setting “versus morphine and codeine”, the constipation effects result was “much weaker than that of morphine and no stronger than that of codeine”.
